Experimental data from US4649204A, “Dialkanolamine derivatives” (McNeilab, Inc., priority 1985, dated 1987).
Counter-ions that a name gives are not always drawn. Like-named read-outs stand apart in the source and are kept apart here.

Test system: decrease in exploratory activity and ptosis induced with tetrabenazine in mice
Assay: tetrabenazine (TBZ) antagonism test: antagonism of the decrease in exploratory activity and ptosis induced by tetrabenazine in mice (antidepressant activity)
Type: in vivo
Conditions: test compound 30 minutes prior to 32 mg/kg i.p. tetrabenazine; for ED50: Mus musculus, ip
Method: The antidepressant activity was determined using the "classical" tetrabenazine (TBZ) antagonism test. […] J. H. Nodine and J. H. Moyer (Lea and Febiger, Philadelphia) p.
Thirty minutes post tetrabenazine, the mice are tested for the presence of normal exploratory activity and ptosis. […] Three to five dosage levels, 10 mice per dosage level, are used per compound.

[1] = first figure of EA/Pt, read-out: TBZ ED50, EA (exploratory activity)
[2] = second figure of EA/Pt, read-out: TBZ ED50, Pt (ptosis)

SMILES | ED50 [1] [mg/kg] | ED50 [2] [mg/kg] | TBZ ED50, EA (exploratory activity) (i.p., first figure of EA/Pt) [mg/kg] | TBZ ED50, Pt (ptosis) (i.p., second figure of EA/Pt) [mg/kg]
CCC(C(c1ccccc1)c1ccccc1)N(CCO)CCO (stereo not drawn) [Example IV, 2,2'-[(1,1-Diphenyl-2-butyl)imino]bis[ethanol]Fumarate] | 23 | 19 |  | 
OCCN(CCO)CC(c1ccccc1)c1cccs1 (stereo not drawn) [Example VI, 2,2'-{[2-Phenyl]-2-[(2-thienyl)ethyl]imino}bis{ethanol}.HI] | ~60 | ~60 |  | 
O[C@H]1CN(CC(c2ccccc2)c2ccccc2)C[C@@H]1O [IX, 1-(2,2-Diphenylethyl)pyrrolidine-3,4-diol Hemifumarate] | 35 | 6 |  | 
CC(CN(CCO)CCO)(c1ccccc1)c1ccccc1 [II, 2,2'-[(2,2-Diphenylpropyl)imino]bis[ethanol]Hydrochloride] | 28 | 35 |  | 
CC(O)CN(CC(C)O)CC(c1ccccc1)c1ccccc1.Cl (stereo not drawn) [III, 1,1'-[(2,2-Diphenylethyl)imino]bis[2-propanol].HCl] |  |  | 11 | 6
OCCN(CCO)CC(c1ccccc1)c1ccccc1 [Example I, 2,2'-[(2,2-Diphenylethyl)imino]bis[ethanol]Hydrochloride] | 15 | 1.5 |  | 
OCCN(CCO)CC(c1ccc(Cl)cc1)c1ccc(Cl)cc1 [Example VII, 2,2'-{[2,2-Bis(4-chlorophenyl)ethyl]imino}bis{ethanol}] | ~60 | ~60 |  | 
OCCN(CCO)CC(F)(c1ccccc1)c1ccccc1 [Example VIII, 2,2'-[(2-Fluoro-2,2-diphenylethyl)imino]-bis[ethanol]Dihexamate] | 40 | 12 |  | 
CC(C(c1ccccc1)c1ccccc1)N(CCO)CCO (stereo not drawn) [Example V, 2,2'-[(1,1-Diphenyl-2-propyl)imino]bis[ethanol]Fumarate] | 13 | 8 |  | 
